Measurements taken from PubChem BioAssay (NCI).
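Cells were grown in 96-well plates and exposed to each compound for 48 hours at five concentrations; endpoints were interpolated linearly between bracketing concentrations, or set to the highest concentration if not reached. TGI: total growth inhibition.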

How the values were obtained:
Assay in all cases: growth of human tumour cells (NCI), 48 h
[1] = tested on: NCI-H23 lung
[2] = tested on: HCT-116 colon
[3] = tested on: UO-31 renal
[4] = tested on: SK-MEL-28 melanoma
[5] = tested on: MALME-3M melanoma
[6] = tested on: HS 578T breast
[7] = tested on: HCC-2998 colon
[8] = tested on: RPMI-8226 leukemia
[9] = tested on: CAKI-1 renal
[10] = tested on: CCRF-CEM leukemia
[11] = tested on: MDA-N
[12] = tested on: SNB-19 CNS
[13] = tested on: BT-549 breast
[14] = tested on: IGROV1 ovarian
[15] = tested on: NCI-H522 lung
[16] = tested on: HL-60(TB) leukemia
[17] = tested on: LOX IMVI melanoma
[18] = tested on: ACHN renal
[19] = tested on: NCI-H460 lung
[20] = tested on: SW-620 colon
[21] = tested on: NCI-H226 lung
[22] = tested on: RXF 393 renal
[23] = tested on: MCF7 breast
[24] = tested on: K-562 leukemia
[25] = tested on: TK-10 renal
[26] = tested on: SK-OV-3 ovarian
[27] = tested on: SK-MEL-5 melanoma
[28] = tested on: MDA-MB-231 breast
[29] = tested on: EKVX NSCLC
[30] = tested on: OVCAR-3 ovarian
[31] = tested on: DU-145 prostate
[32] = tested on: OVCAR-8 ovarian
[33] = tested on: OVCAR-4 ovarian
[34] = tested on: UACC-257 melanoma
[35] = tested on: MOLT-4 leukemia
[36] = tested on: PC-3 prostate
[37] = tested on: MDA-MB-435
[38] = tested on: T-47D breast
[39] = tested on: HOP-62 NSCLC
[40] = tested on: COLO 205 colon
[41] = tested on: HT29 colon
[42] = tested on: SN12C renal
[43] = tested on: SK-MEL-2 melanoma
[44] = tested on: 786-0 renal
[45] = tested on: SF-268 CNS
[46] = tested on: OVCAR-5 ovarian
[47] = tested on: HCT-15 colon
[48] = tested on: M14 melanoma
[49] = tested on: NCI/ADR-RES ovarian
[50] = tested on: A549 NSCLC
[51] = tested on: SF-539 CNS
[52] = tested on: SF-295 CNS
[53] = tested on: SNB-75 CNS
[54] = tested on: A498 renal
[55] = tested on: HOP-92 NSCLC
[56] = tested on: U251 CNS
[57] = tested on: KM12 colon
[58] = tested on: SR leukemia
[59] = tested on: UACC-62 melanoma

## O=C(c1ccccc1)N1OCCC1Nc1ccc(Br)cc1 (stereo not given)
[1]
  TGI: > 10 µM
[2]
  TGI: > 10 µM
[3]
  TGI: 8.81 µM
[4]
  TGI: > 10 µM
[5]
  TGI: > 10 µM
[6]
  TGI: > 10 µM
[7]
  TGI: > 10 µM
[8]
  TGI: > 10 µM
[9]
  TGI: > 10 µM
[10]
  TGI: > 10 µM
[11]
  TGI: > 10 µM
[12]
  TGI: > 10 µM
[13]
  TGI: > 10 µM
[14]
  TGI: > 10 µM
[15]
  TGI: > 10 µM
[16]
  TGI: > 10 µM
[17]
  TGI: > 10 µM
[18]
  TGI: > 10 µM
[19]
  TGI: > 10 µM
[20]
  TGI: > 10 µM
[21]
  TGI: > 10 µM
[22]
  TGI: > 10 µM
[23]
  TGI: > 10 µM
[24]
  TGI: > 10 µM
[25]
  TGI: > 10 µM
[26]
  TGI: > 10 µM
[27]
  TGI: > 10 µM
[28]
  TGI: > 10 µM
[29]
  TGI: > 10 µM
[30]
  TGI: > 10 µM
[31]
  TGI: > 10 µM
[32]
  TGI: > 10 µM
[33]
  TGI: > 10 µM
[34]
  TGI: > 10 µM
[35]
  TGI: > 10 µM
[36]
  TGI: > 10 µM
[37]
  TGI: > 10 µM
[38]
  TGI: > 10 µM
[39]
  TGI: > 10 µM
[40]
  TGI: 4.33 µM
[41]
  TGI: > 10 µM
[42]
  TGI: > 10 µM
[43]
  TGI: > 10 µM
[44]
  TGI: > 10 µM
[45]
  TGI: > 10 µM
[46]
  TGI: > 10 µM
[47]
  TGI: > 10 µM
[48]
  TGI: > 10 µM
[49]
  TGI: > 10 µM
[50]
  TGI: > 10 µM
[51]
  TGI: > 10 µM
[52]
  TGI: > 10 µM
[53]
  TGI: > 10 µM

## Cc1ccc(N2CCC3(CC2)OCCO3)cc1
[1]
  TGI: > 100 µM
[2]
  TGI: > 100 µM
[3]
  TGI: > 100 µM
[4]
  TGI: > 100 µM
[5]
  TGI: > 100 µM
[6]
  TGI: > 100 µM
[7]
  TGI: > 100 µM
[8]
  TGI: > 100 µM
[9]
  TGI: > 100 µM
[10]
  TGI: > 100 µM
[11]
  TGI: > 100 µM
[54]
  TGI: > 100 µM
[12]
  TGI: > 100 µM
[13]
  TGI: > 100 µM
[55]
  TGI: > 100 µM
[14]
  TGI: > 100 µM
[15]
  TGI: > 100 µM
[16]
  TGI: > 100 µM
[56]
  TGI: > 100 µM
[18]
  TGI: > 100 µM
[19]
  TGI: > 100 µM
[20]
  TGI: > 100 µM
[21]
  TGI: > 100 µM
[22]
  TGI: > 100 µM
[24]
  TGI: > 100 µM
[25]
  TGI: > 100 µM
[26]
  TGI: > 100 µM
[27]
  TGI: > 100 µM
[28]
  TGI: > 100 µM
[29]
  TGI: > 100 µM
[30]
  TGI: > 100 µM
[31]
  TGI: > 100 µM
[32]
  TGI: > 100 µM
[33]
  TGI: > 100 µM
[57]
  TGI: > 100 µM
[34]
  TGI: > 100 µM
[35]
  TGI: > 100 µM
[36]
  TGI: > 100 µM
[37]
  TGI: > 100 µM
[38]
  TGI: > 100 µM
[39]
  TGI: > 100 µM
[58]
  TGI: > 100 µM
[40]
  TGI: > 100 µM
[41]
  TGI: > 100 µM
[42]
  TGI: > 100 µM
[43]
  TGI: > 100 µM
[44]
  TGI: > 100 µM
[45]
  TGI: > 100 µM
[46]
  TGI: > 100 µM
[47]
  TGI: > 100 µM
[48]
  TGI: > 100 µM
[49]
  TGI: > 100 µM
[50]
  TGI: > 100 µM
[51]
  TGI: > 100 µM
[59]
  TGI: > 100 µM
[52]
  TGI: > 100 µM
[53]
  TGI: > 100 µM
